Values joined by “and” are separate entries in the source; they are usually repeats but may differ in a detail not shown here. Equal entries are not always repeated. Where two headings read alike, the source gives them in different places.

One assay deals with HCT-116 cells. Nature of the assay: Cell viability (cytotoxicity, LDH release) assay. Particulars: Homo sapiens, 24 h; for viability at 100 µg/mL: read-out: percent of viable cells. Format: cell-based. The procedure, abridged:
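Human colorectal HCT-116 cells exposed to compounds at 10, 25, 50 and 100 µg/mL in DMEM with 10% FBS for 24 h at 37 °C. LDH released into the supernatant measured at 600 nm; viability given as % of untreated control OD (mean ± SD, n = 3), 0.1% Triton X-100 as positive control.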
On the technique in general: LDH in the medium is a marker of cell lysis.

Assay [1] has as its system CDK2 gene in HCT-116 cells. Nature of the assay: qRT-PCR expression profile of the CDK2 gene in HCT-116 cells. The following applies: 24 h, relative to untreated cells (given as decreased x-fold). In kind it is cell-based, human. The method, then: Second, the expression profiles of the CDK2 gene in HCT-116 cells treated with compounds 4d and 4k were determined. The results were compared with the positive control (cells treated with the well-known cytotoxic drug 5-fluorouracil) and the negative control (untreated cells).
Primers specific for the cyclin-dependent kinase-2 (CDK2) and caspase-3 genes were designed using primer blast (https://www.ncbi.nlm.nih.gov/tools/primer-blast/, accessed on 31 October 2021) or primer3 (https://primer3.ut.ee/, accessed on 31 October 2021) software. The selected genes covered the two main groups of the cyclin-dependent kinase-2 (CDK2) gene and the caspase-3 gene. Primers were used in RT-qPCR analysis to amplify fragments of 100–200 bp in length (Table 7).
Total RNA was extracted from each cell culture flask using the RNeasy extraction kit (RNeasy micro kit, cat. no. 74004). Up to 1 × 10^6 cells, depending on the cell line, were disrupted in buffer RLT and homogenized and disrupted. Ethanol was then added to the lysate, creating conditions that promote the selective binding of RNA to the RNeasy membrane. […] The amount of extracted RNA was quantified by estimating the absorbance at 260 nm. The purity of the RNA was checked by measuring the ratio of the absorbance at 260 and 280 nm, where a ratio ranging from 1.8 to 2.0 was taken to be pure. […]
Quantitative real-time PCR was carried out with the Thermal Cycler Rotorgene Real-Time System II (Rotorgene, South Korea) with the SYBR kit. […]
The relative expression levels through the average cycle threshold (CT) were successfully detected. Average CT values were calculated from the triplicate experiment conducted for each gene; the CT value was detected by subtracting the average CT value of genes from the CT value of actin and GAPDH genes. The relative expression levels of the target genes were calculated using the ΔΔ Ct method and the reference genes GAPDH for the cancer cell line. Finally, a fold change equation […] was used to estimate relative expression levels, while the standard deviation was calculated from the replicated experimental data.

For the next assay, the system named is B. subtilis (ATCC 6633). Nature of the assay: Antibacterial agar diffusion method (inhibition zone). Format: cell-based. An outline of the steps:
(§1)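 Strains were tested by agar diffusion, scoring the inhibition zone on the top agar surface against ampicillin (10 µg/well). Viability was assessed by CFU after 60 min compound exposure at 37 °C in BHI (2 ×10^7 CFU/mL), dilution and 24 h plating; IC50 averaged over three measurements.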

For the next assay, the system named is E. faecalis (ATCC 29122). Described as above. In kind it is cell-based. An outline of the steps:
as §1

A further assay has as its system S. aureus (ATCC 25923). The assay is described as above. Format: cell-based. The procedure, abridged: as §1
In another assay the test system is B. cereus (ATCC 14579). Described as above. Format: cell-based. The procedure, abridged: as §1
Assay [2] deals with K. pneumonia (ATCC 700603). Described as above. In kind it is cell-based. The procedure, abridged:
as §1

Assay [3] deals with P. aeruginosa (ATCC 27853). Described as above. Format: cell-based. An outline of the steps:
as §1

Another assay deals with E. coli (ATCC 25966). The description is as above. In kind it is cell-based. Particulars: E. coil (ATCC 25966). An outline of the steps: as §1
Where [4] appears, read: read-out: Mean IC50 (µM) of cytotoxicity.
Setting [5] is: read-out: Mean IC50 (µg/mL) of cytotoxicity.

As for `COc1cc(C2C(C#N)=C(N)OC(C)=C2C(=O)OCc2ccccc2)cc(OC)c1OC` (stereo not shown) [4d, 6-Amino-5-cyano-2-methyl-4-(3,4,5-trimethoxy-phenyl)-4H-pyran-3-carboxylic acid benzyl ester], the viability at 100 µg/mL in the assay with HCT-116 cells was 11 to 32.5%. Further, the IC50 in the assay with HCT-116 cells (setting [4]) was found to be 75.1 ± 5.09 µM; in the assay on HCT-116 cells (setting [5]) it was 32.8 ± 2.22 µg/mL. In addition, in assay [1], the “CDK2 transcript level, fold” value is listed as 0.50 fold. In addition, the “IZ (mm)” value was 12.00 ± 1.41 mm in the assay on B. subtilis (ATCC 6633); 14.50 mm and 14.50 ± 0.71 mm in the assay on E. faecalis (ATCC 29122); 9.00 mm and 9.00 ± 1.41 mm with S. aureus (ATCC 25923); 9.50 ± 0.71 mm in the assay with B. cereus (ATCC 14579); 4.5 ± 0.7 mm in assay [2]; 6.5 ± 0.7 mm in assay [3]. The “IZ (mm)” value in the assay on E. coli (ATCC 25966) is listed as 3.5 ± 0.71 mm.
In the case of `CC1=C(C(=O)OCc2ccccc2)C(c2ccc(C#N)cc2)C(C#N)=C(N)O1` (stereo not shown) [4k, 6-Amino-5-cyano-4-(4-cyano-phenyl)-2-methyl-4H-pyran-3-carboxylic acid benzyl ester], in the assay on HCT-116 cells, the viability at 100 µg/mL fell in the range of 11 to 32.5%. In addition, the IC50 with HCT-116 cells (setting [4]) worked out at 85.9 ± 7.61 µM; in the assay on HCT-116 cells (setting [5]) it was 31.9 ± 2.83 µg/mL. Besides, in assay [1], the “CDK2 transcript level, fold” value came to 0.45 fold. The “IZ (mm)” value was 4.50 ± 0.71 mm in the assay on B. subtilis (ATCC 6633); 5.50 ± 0.71 mm in the assay with E. faecalis (ATCC 29122); 5.75 ± 0.35 mm in the assay with S. aureus (ATCC 25923); 7.00 ± 1.41 mm in the assay with B. cereus (ATCC 14579); 2.5 ± 0.7 mm in assay [2]; 3.5 ± 0.7 mm in [3]. The “IZ (mm)” value with E. coli (ATCC 25966) turned out to be 4.5 ± 0.71 mm.

The record behind these values is PMC9317316, “Synthesis and Evaluation of Some New 4H-Pyran Derivatives as Antioxidant, Antibacterial and Anti-HCT-116 Cells of CRC, with Molecular Docking, Antiproliferative, Apoptotic and ADME Investigations” (Pharmaceuticals, 2022).
